# Earlier results in patent US20240066044A1, “METHODS AND COMPOSITIONS FOR INCREASING NAD+ METABOLOME IN HEALTHY MIDDLE-AGED POPULATION” (Bioenergy Life Science, Inc., priority 2021, published 2024).
# Like-named read-outs stand apart in the source and are kept apart here.
structure (smiles),measurement,setting,value
"NC(=O)c1cccnc1 [NAM, nicotinamide]",doses at which NAM is ineffective for boosting NAD+,NAD+,below 90 mg per day
same,daily tolerable upper dietary intake,Canada,500 mg
same,daily tolerable upper dietary intake,EU,900 mg
same,daily tolerable upper dietary intake,Japan,5 mg/kg
